Test results as given in ChEMBL document CHEMBL1134115, “Antimycobacterial activity of 9-sulfonylated/sulfenylated-6-mercaptopurine derivatives” (Bioorg Med Chem Lett, 2001).
In brackets after ≈: the same amount, converted by molar mass.

Experiments:
Type in all cases: functional
[1] = tested on: Mycobacterium tuberculosis; assay: Antimycobacterial activity against Mycobacterium tuberculosis strain resistant to cycloserine (CS)
[2] = tested on: Mycobacterium tuberculosis; assay: Antimycobacterial activity against Mycobacterium tuberculosis strain resistant to ethambutol (EMB)
[3] = tested on: Mycobacterium tuberculosis; assay: Antimycobacterial activity against Mycobacterium tuberculosis strain resistant to ethionamide (ETA)
[4] = tested on: Mycobacterium tuberculosis; assay: Antimycobacterial activity against Mycobacterium tuberculosis strain resistant to isoniazid (INH)
[5] = tested on: Mycobacterium tuberculosis; assay: Antimycobacterial activity against Mycobacterium tuberculosis strain resistant to kanamycin (KM)
[6] = tested on: Mycobacterium tuberculosis; assay: Antimycobacterial activity against Mycobacterium tuberculosis strain resistant to para-aminosalicilyc acid (PAS)
[7] = tested on: Mycobacterium tuberculosis; assay: Antimycobacterial activity against Mycobacterium tuberculosis strain resistant to pyrazinamide (PZA)
[8] = tested on: Mycobacterium tuberculosis; assay: Antimycobacterial activity against Mycobacterium tuberculosis strain resistant to rifampin (RMP)
[9] = tested on: Mycobacterium tuberculosis; assay: Antimycobacterial activity against Mycobacterium tuberculosis strain resistant to thiacetazone (TAC)

Compound	MIC [1]	MIC [2]	MIC [3]	MIC [4]	MIC [5]	MIC [6]	MIC [7]	MIC [8]	MIC [9]
O=S(=O)(c1ccc(Cl)cc1)n1cnc2c(S)ncnc21	6.25 µg/mL (≈ 19.1 µM)	6.25 µg/mL (≈ 19.1 µM)	25 µg/mL (≈ 76.5 µM)	12.5 µg/mL (≈ 38.3 µM)	12.5 µg/mL (≈ 38.3 µM)	6.25 µg/mL (≈ 19.1 µM)	12.5 µg/mL (≈ 38.3 µM)	12.5 µg/mL (≈ 38.3 µM)	6.25 µg/mL (≈ 19.1 µM)
CN(C)S(=O)(=O)n1cnc2c(=S)[nH]cnc21	3.13 µg/mL (≈ 12.1 µM)	3.13 µg/mL (≈ 12.1 µM)	12.5 µg/mL (≈ 48.2 µM)	6.25 µg/mL (≈ 24.1 µM)	6.25 µg/mL (≈ 24.1 µM)	3.13 µg/mL (≈ 12.1 µM)	3.13 µg/mL (≈ 12.1 µM)	6.25 µg/mL (≈ 24.1 µM)	3.13 µg/mL (≈ 12.1 µM)
Nc1cccc(S(=O)(=O)n2cnc3c(S)ncnc32)c1	12.5 µg/mL (≈ 40.7 µM)	12.5 µg/mL (≈ 40.7 µM)	50 µg/mL (≈ 163 µM)	12.5 µg/mL (≈ 40.7 µM)	12.5 µg/mL (≈ 40.7 µM)	12.5 µg/mL (≈ 40.7 µM)	12.5 µg/mL (≈ 40.7 µM)	12.5 µg/mL (≈ 40.7 µM)	12.5 µg/mL (≈ 40.7 µM)
O=[N+]([O-])c1ccc(Sn2cnc3c(S)ncnc32)cc1	–	0.78 µg/mL (≈ 2.55 µM)	–	6.25 µg/mL (≈ 20.5 µM)	1.56 µg/mL (≈ 5.11 µM)	–	–	0.78 µg/mL (≈ 2.55 µM)	–
CC(=O)Nc1ccc(S(=O)(=O)n2cnc3c(S)ncnc32)cc1	6.25 µg/mL (≈ 17.9 µM)	6.25 µg/mL (≈ 17.9 µM)	25 µg/mL (≈ 71.6 µM)	12.5 µg/mL (≈ 35.8 µM)	12.5 µg/mL (≈ 35.8 µM)	6.25 µg/mL (≈ 17.9 µM)	6.25 µg/mL (≈ 17.9 µM)	12.5 µg/mL (≈ 35.8 µM)	6.25 µg/mL (≈ 17.9 µM)
CO[C@H]1/C=C/O[C@@]2(C)Oc3c(C)c(O)c4c(O)c(c(/C=N/N5CCN(C)CC5)c(O)c4c3C2=O)NC(=O)/C(C)=C\C=C\[C@H](C)[C@H](O)[C@@H](C)[C@@H](O)[C@@H](C)[C@H](OC(C)=O)[C@@H]1C [RIFAMPIN]	0.125 µg/mL (≈ 0.152 µM)	0.125 µg/mL (≈ 0.152 µM)	0.125 µg/mL (≈ 0.152 µM)	0.125 µg/mL (≈ 0.152 µM)	0.125 µg/mL (≈ 0.152 µM)	0.125 µg/mL (≈ 0.152 µM)	0.125 µg/mL (≈ 0.152 µM)	> 8 µg/mL	0.125 µg/mL (≈ 0.152 µM)
